Tests used:
C. albicans (ATCC 14053) = format: cell-based, Candida albicans; details: Mueller-Hinton Broth, 2 × 10^4 CFU/mL, 18 h at 37°C, visible turbidity, complete growth inhibition
Method: The bacterial strains E. coli (KACC 13821, ATCC 11775) and Staphylococcus aureus (KACC 10768, ATCC 25923), and the yeast strain Candida albicans (KCTC 7121, ATCC 14053) were purchased from the Korean Agricultural Culture Collection (KACC) and Korean Collection for Type Cultures (KCTC). Both bacteria and the yeast were cultivated overnight in tryptic soy broth (TSB; Difco, USA) at 200 rpm in a 37°C shaking incubator to the stationary phase. Bacteria were cultivated for 3 h in fresh TSB medium under the same condition to the log phase. The strains were stored with 15% glycerol at −70°C until use.
In addition, antimicrobial activities of the peptides were also tested by broth microdilution assays against E. coli, S. aureus, and C. albicans. Briefly, microbes were grown overnight in Mueller-Hinton Broth (MHB) to the onset of the stationary phase with shaking at 200 rpm. The cultures were diluted in fresh MHB to a final concentration of 2 × 10^4 CFU/mL. A stock solution of each peptide was prepared to a concentration of 640 μg/mL in 0.01% acetic acid, and was then serially diluted two-fold to reach a concentration of 10 μg/mL. After 90-μL aliquots of the microbial suspension were dispensed into each well of a 96-well polypropylene microtiter plate, 10 μL of the peptide solution was added. The antimicrobial activities of the peptides were assessed by measuring the visible turbidity in each well of the plate after 18 h of incubation at 37°C. Minimum inhibitory concentrations (MICs) are expressed as a specific value that caused complete growth inhibition.

[1] = system: Human umbilical vein endothelial cells (HUVECs); assay: Cell viability assay (MTS); format: cell-based; details: 24 h treatment, 25, 50, 100 and 200 μg/mL, OD 490 nm
Method: (§1) The human keratinocytes were maintained in Dulbecco’s Modified Eagle Medium supplemented with 10% fetal bovine serum (FBS; Hyclone, USA), penicillin G (100 U/mL), and streptomycin (100 μg/mL) (Invitrogen, USA). Human umbilical vein endothelial cells (HUVECs) were grown on 0.1% gelatin-coated cell culture dishes in M199 medium (Welgene, Korea) supplemented with 20% (v/v) FBS, 3 ng/mL basic fibroblast growth factor (R&D Systems, USA), 5 U/mL of heparin (Sigma, USA), and a penicillin-streptomycin-amphotericin B mixture (100 U/mL potassium penicillin, […] streptomycin sulfate, and 250 ng/mL amphotericin B; Lonza, Belgium) as a complete medium. Cells were cultured at 37°C in a humidified incubator with 5% CO2. Cells were plated in 96-well tissue culture plates (2 × 10^4 cells per well). After 1 day, they were treated with various concentrations (25, 50, 100, and 200 μg/mL) of peptides. Melittin (Sigma, USA) was used as the positive control. After incubation for 24 h, the viability of the cells was assessed by the Cell Titer 96 AQueous One Solution Cell Proliferation Assay according to the manufacturer’s protocol (Promega, USA). The optical density at 490 nm was measured with a microplate reader (Beckman DTX 8800 Multi Detector, USA).

human keratinocytes = assay: Cell viability assay (MTS); format: cell-based; details: 24 h treatment, 25, 50, 100 and 200 μg/mL, OD 490 nm
Method: as §1

## CC[C@H](C)[C@H](NC(=O)CN)C(=O)NCC(=O)N[C@@H](C)C(=O)N[C@H](C(=O)N[C@@H](CC(C)C)C(=O)N[C@@H](CCCCN)C(=O)N[C@H](C(=O)N[C@@H](CC(C)C)C(=O)N[C@H](C(=O)N[C@H](C(=O)NCC(=O)N[C@@H](CC(C)C)C(=O)N1CCC[C@H]1C(=O)N[C@@H](C)C(=O)N[C@@H](CC(C)C)C(=O)N[C@H](C(=O)N[C@@H](CO)C(=O)N[C@@H](Cc1c[nH]c2ccccc12)C(=O)N[C@H](C(=O)N[C@@H](CCCCN)C(=O)N[C@@H](CCCNC(=N)N)C(=O)N[C@@H](CCCCN)C(=O)N[C@@H](CCCNC(=N)N)C(=O)N[C@@H](CCC(N)=O)C(=O)N[C@@H](CCC(N)=O)C(N)=O)[C@@H](C)CC)[C@@H](C)CC)[C@@H](C)O)[C@@H](C)O)C(C)C)C(C)C [Melittin]
C. albicans (ATCC 14053)
  Minimum Inhibitory Concentration (MIC): 8 µg/mL
[1]
  Cell viability of HUVECs: more susceptible
Human keratinocytes
  Cell viability of human keratinocytes: more susceptible
